Laboratory results taken from patent US6806230B1, “Pyrimidine derivatives and herbicides containing them” (Kumiai Chemical Industry Co., Ltd., priority 1999, dated 2004).

Assays:
Type in all cases: in vivo
[1] = test system: barnyard grass (Ec); assay: Test Example 2: herbicidal effects by upland soil treatment; parameters: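 0-5 growth inhibition grade; 5 = over 90%; 4 = 70-90%; 3 = 50-70%; 2 = 30-50%; 1 = 10-30%; 0 = under 10%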; conditions: dose 100 g active ingredient per 10 ares, examined on the 21st day after treatment, standards of Table 44
Method in brief: (§1)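 Pre-emergence test: barnyard grass and green foxtail sown in upland soil, then soil surface sprayed with wettable-powder formulation at 100 g active ingredient per 10 ares (100 l per 10 ares). Grown in greenhouse; herbicidal effect scored on a rating scale 21 days after treatment.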

[2] = test system: monochoria (Mo); assay: Test Example 1: herbicidal effects by flooded paddy field treatment; conditions: dose 100 gai/10a, examined on 21st day after treatment, index 0-5 per Table 44;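 also: 0-5 growth inhibition grade; 5 = over 90%; 4 = 70-90%; 3 = 50-70%; 2 = 30-50%; 1 = 10-30%; 0 = under 10%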
Method in brief: (§2)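 Puddled paddy soil in pots, seeds sown, 3 cm flood. Day after sowing: wettable powder diluted in water, applied dropwise to water surface, 100 g a.i./10 ares. Greenhouse; visual herbicidal rating at day 21 post-treatment.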

[3] = test system: green foxtail (Se); assay: Test Example 2: herbicidal effects by upland soil treatment; conditions: dose 100 g active ingredient per 10 ares, examined on the 21st day after treatment, standards of Table 44;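 also: 0-5 growth inhibition grade; 5 = over 90%; 4 = 70-90%; 3 = 50-70%; 2 = 30-50%; 1 = 10-30%; 0 = under 10%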
Method in brief: as §1

[4] = test system: barnyard grass (Ec); assay: Test Example 5: selectivity for a crop plant by soil treatment in upland field; parameters: scale not given here; conditions: dose 25 gai/10a, 21st day after treatment, index per Table 44
Protocol: (§3) In a 80 cm^2 plastic pot, upland soil was filled, and seeds of barnyard grass (Ec), green foxtail (Se), soybean (G1), wheat (Tr) and corn (Ze) were sown and covered with soil. A wettable powder prepared in accordance with Formulation Example 1 was diluted with water and uniformly applied to the soil surface by a small size spray at a rate of 100 l per 10 ares so that the dose of the active ingredient would be 25 g per 10 ares. Thereafter, cultivation was carried out in a green house, and on the 21st day after the treatment, the herbicidal effects were examined in accordance with the standards of Table 44.

[5] = test system: corn (Ze); assay: as above; parameters: scale not given here; conditions: dose 25 gai/10a, 21st day after treatment, index per Table 44
Protocol: as §3

[6] = test system: soybean (G1); assay: as above; parameters: scale not given here; conditions: dose 25 gai/10a, 21st day after treatment, index per Table 44
Protocol: as §3

[7] = test system: wheat (Tr); assay: as above; parameters: scale not given here; conditions: dose 25 gai/10a, 21st day after treatment, index per Table 44
Protocol: as §3

[8] = test system: barnyard grass (Eo); assay: Test Example 1: herbicidal effects by flooded paddy field treatment; conditions: dose 100 gai/10a, examined on 21st day after treatment, index 0-5 per Table 44;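 also: 0-5 growth inhibition grade; 5 = over 90%; 4 = 70-90%; 3 = 50-70%; 2 = 30-50%; 1 = 10-30%; 0 = under 10%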
Method in brief: as §2

[9] = test system: barnyard grass (Ec); assay: Test Example 3: herbicidal effects by foliage treatment in upland field; parameters: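 0-5 growth inhibition grade; 5 = over 90%; 4 = 70-90%; 3 = 50-70%; 2 = 30-50%; 1 = 10-30%; 0 = under 10%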; conditions: dose 100 g active ingredient per 10 ares, examined on the 14th day after treatment
Method in brief: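 Barnyard grass and green foxtail were grown in upland soil for 2 weeks in a greenhouse. A water-diluted wettable powder was sprayed over the foliage at 100 l per 10 ares, giving 100 g active ingredient per 10 ares. Herbicidal effect was scored on day 14 after treatment.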

[10] = test system: rice (Or); assay: Test Example 4: selectivity for a crop plant by flooded paddy field treatment; parameters: scale not given here; conditions: rice transplanted at second leaf stage; for Or (effect on crop plant rice, index): dose 25 g active ingredient per 10 ares, examined on the 21st day after treatment
Method in brief: (§4)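 Flooded paddy pots, 3 cm water; weeds sown from seed, rice transplanted at 2nd-leaf stage. Day after: wettable powder diluted in water, applied dropwise to water surface, 25 g a.i./10 a. Greenhouse; herbicidal effect rated at day 21.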

[11] = test system: barnyard grass (Eo); assay: as above; parameters: scale not given here; conditions: for Eo (herbicidal effects, index): dose 25 g active ingredient per 10 ares, examined on the 21st day after treatment
Method in brief: as §4

[12] = test system: monochoria (Mo); assay: as above; parameters: scale not given here; conditions: for Mo (herbicidal effects, index): dose 25 g active ingredient per 10 ares, examined on the 21st day after treatment
Method in brief: as §4

CCC(C)C(c1cncnc1C(F)(F)F)N(C)C(=O)Cc1ccc(F)cc1 (mixture of isomers) [Compound 1-58]
herbicidal effects, Ec (barnyard grass) [1]: 5 | Herbicidal effect index, Mo [2]: 5 | herbicidal effects, Se (green foxtail) [3]: 5 | Ec (herbicidal effect index) [4]: 5 | Ze (herbicidal effect index on crop) [5]: 0 | Gl (herbicidal effect index on crop) [6]: 0 | Tr (herbicidal effect index on crop) [7]: 3 | Herbicidal effect index, Eo [8]: 5 | Ec (herbicidal effects, index) [9]: 4

CCC(C)C(c1cncnc1C(F)(F)F)N(C)C(=O)Cc1ccc(Cl)cc1 (mixture of isomers) [Compound 1-59]
Or (effect on crop plant rice, index) [10]: 0 | Eo (herbicidal effects, index) [11]: 5 | Mo (herbicidal effects, index) [12]: 5 | herbicidal effects, Ec (barnyard grass) [1]: 5 | Herbicidal effect index, Mo [2]: 5 | herbicidal effects, Se (green foxtail) [3]: 5 | Ec (herbicidal effect index) [4]: 5 | Ze (herbicidal effect index on crop) [5]: 0 | Gl (herbicidal effect index on crop) [6]: 0 | Tr (herbicidal effect index on crop) [7]: 1 | Herbicidal effect index, Eo [8]: 5 | Ec (herbicidal effects, index) [9]: 4

CCC(C)C(c1cncnc1C(F)(F)F)N(C)C(=O)Cc1ccc(C)cc1 (mixture of isomers) [Compound 1-60]
Or (effect on crop plant rice, index) [10]: 1 | Eo (herbicidal effects, index) [11]: 5 | Mo (herbicidal effects, index) [12]: 5 | herbicidal effects, Ec (barnyard grass) [1]: 5 | Herbicidal effect index, Mo [2]: 5 | herbicidal effects, Se (green foxtail) [3]: 5 | Ec (herbicidal effect index) [4]: 5 | Ze (herbicidal effect index on crop) [5]: 0 | Gl (herbicidal effect index on crop) [6]: 1 | Tr (herbicidal effect index on crop) [7]: 2 | Herbicidal effect index, Eo [8]: 5 | Ec (herbicidal effects, index) [9]: 4

CC(C)C(c1cncnc1C(F)(F)F)N(C)C(=O)Cc1ccc(I)cc1 (racemic) [Compound 1-42]
Or (effect on crop plant rice, index) [10]: 0 | Eo (herbicidal effects, index) [11]: 5 | Mo (herbicidal effects, index) [12]: 5 | herbicidal effects, Ec (barnyard grass) [1]: 5 | Herbicidal effect index, Mo [2]: 5 | herbicidal effects, Se (green foxtail) [3]: 5 | Ec (herbicidal effect index) [4]: 5 | Ze (herbicidal effect index on crop) [5]: 0 | Gl (herbicidal effect index on crop) [6]: 0 | Tr (herbicidal effect index on crop) [7]: 0 | Herbicidal effect index, Eo [8]: 5 | Ec (herbicidal effects, index) [9]: 4

CC(C)C(c1cncnc1C(F)(F)F)N(C)C(=O)Cc1ccc(Cl)cc1F (racemic) [Compound 1-46]
Or (effect on crop plant rice, index) [10]: 0 | Eo (herbicidal effects, index) [11]: 5 | Mo (herbicidal effects, index) [12]: 5 | herbicidal effects, Ec (barnyard grass) [1]: 5 | Herbicidal effect index, Mo [2]: 5 | herbicidal effects, Se (green foxtail) [3]: 5 | Ec (herbicidal effect index) [4]: 5 | Ze (herbicidal effect index on crop) [5]: 0 | Gl (herbicidal effect index on crop) [6]: 1 | Tr (herbicidal effect index on crop) [7]: 3 | Herbicidal effect index, Eo [8]: 5 | Ec (herbicidal effects, index) [9]: 4

CCN(C(=O)Cc1ccc(Cl)cc1)C(c1cncnc1C(F)(F)F)C(C)C (racemic) [Compound 1-48]
Or (effect on crop plant rice, index) [10]: 1 | Eo (herbicidal effects, index) [11]: 5 | Mo (herbicidal effects, index) [12]: 5 | herbicidal effects, Ec (barnyard grass) [1]: 5 | Herbicidal effect index, Mo [2]: 5 | herbicidal effects, Se (green foxtail) [3]: 5 | Ec (herbicidal effect index) [4]: 4 | Ze (herbicidal effect index on crop) [5]: 0 | Gl (herbicidal effect index on crop) [6]: 0 | Tr (herbicidal effect index on crop) [7]: 1 | Herbicidal effect index, Eo [8]: 5 | Ec (herbicidal effects, index) [9]: 5

Cc1ccccc1CC(=O)N(C)C(c1cncnc1C(F)(F)F)C(C)C (racemic) [Compound 1-50]
Or (effect on crop plant rice, index) [10]: 1 | Eo (herbicidal effects, index) [11]: 5 | Mo (herbicidal effects, index) [12]: 5 | herbicidal effects, Ec (barnyard grass) [1]: 5 | Herbicidal effect index, Mo [2]: 5 | herbicidal effects, Se (green foxtail) [3]: 5 | Ec (herbicidal effect index) [4]: 4 | Ze (herbicidal effect index on crop) [5]: 0 | Gl (herbicidal effect index on crop) [6]: 3 | Tr (herbicidal effect index on crop) [7]: 3 | Herbicidal effect index, Eo [8]: 5 | Ec (herbicidal effects, index) [9]: 4

Cc1ncncc1C(C(C)C)N(C)C(=O)Cc1ccc(Cl)cc1 (racemic) [Compound 1-56]
herbicidal effects, Ec (barnyard grass) [1]: 5 | Herbicidal effect index, Mo [2]: 5 | herbicidal effects, Se (green foxtail) [3]: 5 | Ec (herbicidal effect index) [4]: 5 | Ze (herbicidal effect index on crop) [5]: 3 | Gl (herbicidal effect index on crop) [6]: 0 | Tr (herbicidal effect index on crop) [7]: 4 | Herbicidal effect index, Eo [8]: 5 | Ec (herbicidal effects, index) [9]: 4

COCc1ccc(CC(=O)N(C)C(c2cncnc2C(F)(F)F)C(C)C)cc1 (racemic) [Compound 1-76]
Or (effect on crop plant rice, index) [10]: 0 | Eo (herbicidal effects, index) [11]: 5 | Mo (herbicidal effects, index) [12]: 5 | herbicidal effects, Ec (barnyard grass) [1]: 5 | Herbicidal effect index, Mo [2]: 5 | herbicidal effects, Se (green foxtail) [3]: 5 | Ec (herbicidal effect index) [4]: 4 | Ze (herbicidal effect index on crop) [5]: 2 | Gl (herbicidal effect index on crop) [6]: 0 | Tr (herbicidal effect index on crop) [7]: 2 | Herbicidal effect index, Eo [8]: 5

CC(C)C(c1cncnc1C(F)(F)F)N(C)C(=O)C=Cc1ccccc1 (racemic) [Compound 1-85]
Or (effect on crop plant rice, index) [10]: 0 | Eo (herbicidal effects, index) [11]: 5 | Mo (herbicidal effects, index) [12]: 5 | herbicidal effects, Ec (barnyard grass) [1]: 5 | Herbicidal effect index, Mo [2]: 5 | herbicidal effects, Se (green foxtail) [3]: 5 | Ec (herbicidal effect index) [4]: 4 | Ze (herbicidal effect index on crop) [5]: 0 | Gl (herbicidal effect index on crop) [6]: 0 | Tr (herbicidal effect index on crop) [7]: 1 | Herbicidal effect index, Eo [8]: 5

CC(C)C(c1cncnc1C(F)(F)F)N(C)C(=O)Cc1ccc(OC(F)(F)F)cc1 (racemic) [Compound 1-95]
herbicidal effects, Ec (barnyard grass) [1]: 5 | Herbicidal effect index, Mo [2]: 5 | herbicidal effects, Se (green foxtail) [3]: 5 | Ec (herbicidal effect index) [4]: 5 | Ze (herbicidal effect index on crop) [5]: 0 | Gl (herbicidal effect index on crop) [6]: 1 | Tr (herbicidal effect index on crop) [7]: 0 | Herbicidal effect index, Eo [8]: 5 | Ec (herbicidal effects, index) [9]: 5

CC(C)Oc1ccc(CC(=O)N(C)C(c2cncnc2C(F)(F)F)C(C)C)cc1 (racemic) [Compound 1-97]
Or (effect on crop plant rice, index) [10]: 0 | Eo (herbicidal effects, index) [11]: 5 | Mo (herbicidal effects, index) [12]: 5 | herbicidal effects, Ec (barnyard grass) [1]: 5 | Herbicidal effect index, Mo [2]: 5 | herbicidal effects, Se (green foxtail) [3]: 5 | Ec (herbicidal effect index) [4]: 4 | Ze (herbicidal effect index on crop) [5]: 0 | Gl (herbicidal effect index on crop) [6]: 3 | Tr (herbicidal effect index on crop) [7]: 1 | Herbicidal effect index, Eo [8]: 5

CCCN(C(=O)Cc1ccc(C#N)cc1)C(c1cncnc1C(F)(F)F)C(C)C (racemic) [Compound 1-99]
Or (herbicidal effect index on crop) ([10]; dose 25 gai/10a, 21st day after treatment, index per Table 44): 1 | Eo (herbicidal effect index) ([11]; barnyard grass, dose 25 gai/10a, 21st day after treatment, index per Table 44): 5 | Mo (herbicidal effect index) ([12]; monochoria, dose 25 gai/10a, 21st day after treatment, index per Table 44): 5 | herbicidal effects, Ec (barnyard grass) [1]: 5 | Herbicidal effect index, Mo [2]: 5 | herbicidal effects, Se (green foxtail) [3]: 5 | Ec (herbicidal effect index) [4]: 4 | Ze (herbicidal effect index on crop) [5]: 0 | Gl (herbicidal effect index on crop) [6]: 0 | Tr (herbicidal effect index on crop) [7]: 3 | Herbicidal effect index, Eo [8]: 5

CC(C)C(c1cncnc1C(F)(F)F)N(C)C(=O)Cc1ccccc1F (racemic) [Compound 1-100]
herbicidal effects, Ec (barnyard grass) [1]: 5 | Herbicidal effect index, Mo [2]: 5 | herbicidal effects, Se (green foxtail) [3]: 5 | Ec (herbicidal effect index) [4]: 5 | Ze (herbicidal effect index on crop) [5]: 2 | Gl (herbicidal effect index on crop) [6]: 0 | Tr (herbicidal effect index on crop) [7]: 2 | Herbicidal effect index, Eo [8]: 5 | Ec (herbicidal effects, index) [9]: 5
